According to patent US20240269139A1, “COMPOUNDS FOR TARGETED PROTEIN DEGRADATION OF KINASES” (DANA-FARBER CANCER INSTITUTE, INC., priority 2020, published 2024):
Like-named read-outs stand apart in the source and are kept apart here.

Key:
Assay type in all cases: cell-based
[1] = target: protein kinases (human kinome) (Homo sapiens, UniProt Q15118); conditions: PDK1 Q15118; experiment wp084
[2] = target: T1, protein kinases (human kinome) (Homo sapiens, UniProt Q4G0N4); conditions: Accession Q4GON4; experiment wp084; direction down
T1 sequence (Q4G0N4 63-442): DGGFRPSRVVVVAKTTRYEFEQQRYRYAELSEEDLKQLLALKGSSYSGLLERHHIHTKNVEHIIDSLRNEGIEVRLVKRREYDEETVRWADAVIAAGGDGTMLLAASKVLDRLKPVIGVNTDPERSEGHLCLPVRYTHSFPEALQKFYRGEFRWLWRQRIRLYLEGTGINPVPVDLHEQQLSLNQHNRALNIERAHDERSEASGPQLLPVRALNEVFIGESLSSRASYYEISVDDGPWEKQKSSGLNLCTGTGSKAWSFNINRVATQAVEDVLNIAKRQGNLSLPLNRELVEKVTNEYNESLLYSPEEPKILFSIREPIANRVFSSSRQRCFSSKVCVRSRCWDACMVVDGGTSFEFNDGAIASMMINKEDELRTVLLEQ

[3] = target: protein kinases (human kinome) (Homo sapiens, UniProt O43683); conditions: for logFC: BUB1 (O43683); for logFC BUB1 (O43683): direction down
protein kinases (human kinome) (Homo sapiens, UniProt O43683), sequence (O43683 whole entry): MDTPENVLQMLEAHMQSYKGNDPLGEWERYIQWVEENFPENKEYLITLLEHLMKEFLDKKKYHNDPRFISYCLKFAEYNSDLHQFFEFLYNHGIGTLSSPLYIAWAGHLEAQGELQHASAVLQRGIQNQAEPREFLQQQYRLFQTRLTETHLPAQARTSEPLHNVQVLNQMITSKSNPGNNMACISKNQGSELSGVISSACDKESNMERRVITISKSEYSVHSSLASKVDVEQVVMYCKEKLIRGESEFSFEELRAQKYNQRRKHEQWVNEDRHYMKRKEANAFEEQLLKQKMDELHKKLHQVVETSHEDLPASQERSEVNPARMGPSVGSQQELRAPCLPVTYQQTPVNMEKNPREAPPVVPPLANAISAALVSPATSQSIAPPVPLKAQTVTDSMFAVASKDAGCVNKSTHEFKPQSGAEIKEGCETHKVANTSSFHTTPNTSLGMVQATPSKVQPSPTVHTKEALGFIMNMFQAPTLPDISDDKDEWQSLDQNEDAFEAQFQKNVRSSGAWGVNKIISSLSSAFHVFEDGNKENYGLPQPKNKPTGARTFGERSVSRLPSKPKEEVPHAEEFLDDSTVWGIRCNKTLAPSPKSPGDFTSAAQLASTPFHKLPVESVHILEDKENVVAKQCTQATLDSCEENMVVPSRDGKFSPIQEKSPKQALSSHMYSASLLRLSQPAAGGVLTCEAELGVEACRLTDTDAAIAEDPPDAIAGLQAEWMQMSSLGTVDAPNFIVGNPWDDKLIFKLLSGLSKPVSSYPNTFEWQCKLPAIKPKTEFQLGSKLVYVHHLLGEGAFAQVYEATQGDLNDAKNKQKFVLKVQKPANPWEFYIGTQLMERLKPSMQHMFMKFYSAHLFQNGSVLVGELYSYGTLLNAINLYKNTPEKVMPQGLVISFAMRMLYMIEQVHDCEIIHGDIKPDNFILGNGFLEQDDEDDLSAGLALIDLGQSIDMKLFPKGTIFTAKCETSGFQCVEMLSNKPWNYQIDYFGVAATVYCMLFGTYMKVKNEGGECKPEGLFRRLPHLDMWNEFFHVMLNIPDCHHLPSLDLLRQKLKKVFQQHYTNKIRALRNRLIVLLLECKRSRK

[4] = target: protein kinases (human kinome) (Homo sapiens, UniProt P07947); conditions: YES1 (P07947)
protein kinases (human kinome) (Homo sapiens, UniProt P07947), sequence (P07947 whole entry): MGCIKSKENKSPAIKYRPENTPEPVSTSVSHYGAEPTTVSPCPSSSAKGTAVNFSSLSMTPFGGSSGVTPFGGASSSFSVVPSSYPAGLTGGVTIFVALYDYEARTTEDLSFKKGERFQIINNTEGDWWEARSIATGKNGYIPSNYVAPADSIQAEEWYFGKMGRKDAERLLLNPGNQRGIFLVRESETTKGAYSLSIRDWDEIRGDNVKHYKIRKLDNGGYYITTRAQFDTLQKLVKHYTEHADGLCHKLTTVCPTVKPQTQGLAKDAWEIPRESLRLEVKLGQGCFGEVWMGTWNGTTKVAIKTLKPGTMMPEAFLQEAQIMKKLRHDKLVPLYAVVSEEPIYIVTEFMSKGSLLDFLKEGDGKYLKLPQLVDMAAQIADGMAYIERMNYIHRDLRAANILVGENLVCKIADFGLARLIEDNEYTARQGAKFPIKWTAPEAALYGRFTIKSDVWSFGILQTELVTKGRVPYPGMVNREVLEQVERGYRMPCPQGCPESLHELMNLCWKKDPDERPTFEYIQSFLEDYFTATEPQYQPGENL

[5] = target: protein kinases (human kinome) (Homo sapiens, UniProt P53667); conditions: LIMK1 (P53667-1)
protein kinases (human kinome) (Homo sapiens, UniProt P53667), sequence (P53667 whole entry): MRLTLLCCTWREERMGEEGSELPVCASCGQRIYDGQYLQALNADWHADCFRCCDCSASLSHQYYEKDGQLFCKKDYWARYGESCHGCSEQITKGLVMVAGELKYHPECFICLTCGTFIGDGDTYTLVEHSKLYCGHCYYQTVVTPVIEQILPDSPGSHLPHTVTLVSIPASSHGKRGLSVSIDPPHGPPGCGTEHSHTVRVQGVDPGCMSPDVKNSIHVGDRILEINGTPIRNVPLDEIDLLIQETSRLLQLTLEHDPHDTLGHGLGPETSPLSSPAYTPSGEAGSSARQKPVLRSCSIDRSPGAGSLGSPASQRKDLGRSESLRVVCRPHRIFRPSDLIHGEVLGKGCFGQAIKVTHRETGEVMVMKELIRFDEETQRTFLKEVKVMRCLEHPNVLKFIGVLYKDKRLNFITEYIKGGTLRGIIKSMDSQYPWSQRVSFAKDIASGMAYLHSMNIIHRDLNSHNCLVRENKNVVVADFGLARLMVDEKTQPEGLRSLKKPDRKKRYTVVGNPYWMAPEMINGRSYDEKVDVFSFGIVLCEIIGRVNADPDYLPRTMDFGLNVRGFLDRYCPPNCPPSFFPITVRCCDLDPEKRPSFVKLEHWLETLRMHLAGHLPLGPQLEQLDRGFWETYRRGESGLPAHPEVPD

[6] = target: protein kinases (human kinome) (Homo sapiens, UniProt Q13233)
protein kinases (human kinome) (Homo sapiens, UniProt Q13233), sequence (Q13233 whole entry): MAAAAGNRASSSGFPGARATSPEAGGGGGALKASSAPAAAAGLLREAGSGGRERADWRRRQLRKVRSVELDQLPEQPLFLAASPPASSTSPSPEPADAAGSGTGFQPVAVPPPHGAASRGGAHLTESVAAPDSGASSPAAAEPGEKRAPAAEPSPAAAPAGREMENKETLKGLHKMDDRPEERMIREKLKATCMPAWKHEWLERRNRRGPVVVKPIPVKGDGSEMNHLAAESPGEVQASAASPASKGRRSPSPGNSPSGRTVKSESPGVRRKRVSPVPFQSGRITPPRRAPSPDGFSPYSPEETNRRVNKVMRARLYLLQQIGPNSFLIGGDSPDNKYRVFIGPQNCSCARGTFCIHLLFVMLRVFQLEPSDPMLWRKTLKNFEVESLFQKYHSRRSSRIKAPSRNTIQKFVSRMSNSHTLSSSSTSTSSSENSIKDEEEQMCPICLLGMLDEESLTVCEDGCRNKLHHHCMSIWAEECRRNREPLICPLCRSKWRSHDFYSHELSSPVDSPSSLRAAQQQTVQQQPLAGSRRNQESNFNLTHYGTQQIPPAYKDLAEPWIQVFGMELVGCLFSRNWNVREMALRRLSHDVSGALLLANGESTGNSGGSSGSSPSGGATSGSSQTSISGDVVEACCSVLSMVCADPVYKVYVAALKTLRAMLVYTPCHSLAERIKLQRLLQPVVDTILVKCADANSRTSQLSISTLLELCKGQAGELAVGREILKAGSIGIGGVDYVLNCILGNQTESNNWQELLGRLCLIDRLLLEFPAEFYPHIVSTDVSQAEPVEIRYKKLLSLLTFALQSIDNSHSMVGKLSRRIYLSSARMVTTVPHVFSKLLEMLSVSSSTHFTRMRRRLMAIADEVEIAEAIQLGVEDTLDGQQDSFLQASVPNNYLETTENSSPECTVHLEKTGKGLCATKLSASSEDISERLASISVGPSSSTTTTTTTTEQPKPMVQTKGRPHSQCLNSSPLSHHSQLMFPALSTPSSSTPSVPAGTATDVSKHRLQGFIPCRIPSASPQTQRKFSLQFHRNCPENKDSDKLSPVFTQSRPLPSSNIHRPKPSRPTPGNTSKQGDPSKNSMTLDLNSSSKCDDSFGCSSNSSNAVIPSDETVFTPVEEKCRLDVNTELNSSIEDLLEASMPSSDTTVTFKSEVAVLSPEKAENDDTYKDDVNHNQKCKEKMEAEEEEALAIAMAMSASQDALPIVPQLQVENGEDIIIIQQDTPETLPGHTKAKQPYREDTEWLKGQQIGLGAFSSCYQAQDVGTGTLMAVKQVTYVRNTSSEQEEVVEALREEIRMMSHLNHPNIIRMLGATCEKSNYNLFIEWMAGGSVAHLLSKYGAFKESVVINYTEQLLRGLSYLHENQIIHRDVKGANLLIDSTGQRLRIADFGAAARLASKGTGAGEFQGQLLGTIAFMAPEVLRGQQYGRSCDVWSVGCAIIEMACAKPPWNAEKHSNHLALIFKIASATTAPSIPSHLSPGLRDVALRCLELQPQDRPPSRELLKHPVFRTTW

[7] = target: protein kinases (human kinome) (Homo sapiens, UniProt Q16584)
protein kinases (human kinome) (Homo sapiens, UniProt Q16584), sequence (Q16584 whole entry): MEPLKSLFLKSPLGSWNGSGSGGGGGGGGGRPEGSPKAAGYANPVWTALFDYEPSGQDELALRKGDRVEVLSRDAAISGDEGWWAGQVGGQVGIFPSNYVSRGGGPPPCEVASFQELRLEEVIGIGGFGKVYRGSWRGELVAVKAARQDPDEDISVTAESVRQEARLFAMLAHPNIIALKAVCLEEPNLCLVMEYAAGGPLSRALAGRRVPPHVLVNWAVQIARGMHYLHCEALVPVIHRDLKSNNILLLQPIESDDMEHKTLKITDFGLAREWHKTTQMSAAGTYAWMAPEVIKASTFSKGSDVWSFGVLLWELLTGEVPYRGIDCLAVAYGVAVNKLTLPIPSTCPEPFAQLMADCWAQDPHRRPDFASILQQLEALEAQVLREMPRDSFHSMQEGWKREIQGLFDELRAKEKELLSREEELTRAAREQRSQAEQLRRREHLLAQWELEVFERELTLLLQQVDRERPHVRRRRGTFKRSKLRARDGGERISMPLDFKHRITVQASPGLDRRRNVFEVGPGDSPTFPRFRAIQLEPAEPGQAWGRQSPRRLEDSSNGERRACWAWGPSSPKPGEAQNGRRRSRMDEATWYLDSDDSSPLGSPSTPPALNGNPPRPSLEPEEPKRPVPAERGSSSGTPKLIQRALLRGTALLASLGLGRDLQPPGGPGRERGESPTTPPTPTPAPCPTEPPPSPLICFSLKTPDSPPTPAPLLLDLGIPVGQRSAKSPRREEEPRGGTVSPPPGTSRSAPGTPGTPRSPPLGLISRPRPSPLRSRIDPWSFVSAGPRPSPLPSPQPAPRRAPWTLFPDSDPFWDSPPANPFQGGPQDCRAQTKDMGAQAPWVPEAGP

[8] = target: T2, protein kinases (human kinome) (Homo sapiens, UniProt Q8TAS1)
T2 sequence (Q8TAS1 1-419): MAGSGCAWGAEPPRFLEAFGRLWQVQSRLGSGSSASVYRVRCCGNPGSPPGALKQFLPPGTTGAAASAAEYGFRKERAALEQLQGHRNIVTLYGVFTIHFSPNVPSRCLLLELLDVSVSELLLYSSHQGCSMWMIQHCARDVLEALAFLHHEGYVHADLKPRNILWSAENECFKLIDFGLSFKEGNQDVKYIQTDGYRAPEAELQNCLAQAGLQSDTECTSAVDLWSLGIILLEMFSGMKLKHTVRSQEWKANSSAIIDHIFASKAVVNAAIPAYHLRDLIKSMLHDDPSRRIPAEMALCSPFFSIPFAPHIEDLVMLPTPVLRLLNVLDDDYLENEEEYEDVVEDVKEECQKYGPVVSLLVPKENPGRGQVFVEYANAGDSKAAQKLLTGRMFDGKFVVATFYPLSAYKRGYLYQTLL

protein kinases (human kinome) (Homo sapiens, UniProt Q15118), sequence (Q15118 29-436): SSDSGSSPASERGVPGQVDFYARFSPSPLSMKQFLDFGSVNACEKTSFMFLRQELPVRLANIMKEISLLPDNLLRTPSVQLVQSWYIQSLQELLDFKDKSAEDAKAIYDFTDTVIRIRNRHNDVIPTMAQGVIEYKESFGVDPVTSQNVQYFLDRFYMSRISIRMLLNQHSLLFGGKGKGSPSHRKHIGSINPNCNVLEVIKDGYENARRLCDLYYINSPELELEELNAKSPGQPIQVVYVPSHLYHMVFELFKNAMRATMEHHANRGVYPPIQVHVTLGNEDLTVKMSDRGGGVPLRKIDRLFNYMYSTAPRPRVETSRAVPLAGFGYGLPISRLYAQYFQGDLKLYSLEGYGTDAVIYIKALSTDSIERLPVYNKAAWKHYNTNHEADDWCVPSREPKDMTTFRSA

SMILES: CC(=O)c1c(C)c2cnc(Nc3ccc(N4CCN(CCOCCOCCOCCNC(=O)COc5cccc6c5C(=O)N(C5CCC(=O)NC5=O)C6=O)CC4)cn3)nc2n(C2CCCC2)c1=O (stereo not shown) [BSJ.03.123]
- logFC [1]: −0.5666
- logFC PDK1 [1]: −0.5666
- logFC NADK2 [2]: −0.4839

SMILES: CN(C)C(=O)c1cc2cnc(Nc3ccc(N4CCN(CCCCNC(=O)COc5cccc6c5C(=O)N(C5CCC(=O)NC5=O)C6=O)CC4)cn3)nc2n1C1CCCC1 (stereo not shown) [BSJ.04.132]
- logFC [1]: −0.7569
- logFC PDK1 [1]: −0.7569
- logFC NADK2 [2]: −0.5591

SMILES: Cc1ccc(NC(=O)c2cccc(C(F)(F)F)c2)cc1N1Cc2cnc(Nc3ccc(N4CCN(Cc5cn(CCCCCOc6cccc7c6C(=O)N(C6CCC(=O)NC6=O)C7=O)nn5)CC4)nc3)nc2N(C)C1=O (stereo not shown) [DB0646, N-(3-(7-((6-(4-((1-(5-((2-(2,6-Dioxopiperidin-3-yl)-1,3-dioxoisoindolin-4-yl)oxy)pentyl)-1H-1,2,3-triazol-4-yl)methyl)piperazin-1-v)pyridin-3-yl)amino)-1-methyl-2-oxo-1,4-dihydropyrimido[4,5-d]pyrimidin-3(2H)-yl)-4-methylphenyl)-3-(trifluoromethyl)benzamide]
- logFC ([3]; experiment wp045): −0.3378
- logFC ([3]; experiment wp117): −0.3423
- logFC ([3]; experiment wp152): −0.4014
- logFC BUB1 (O43683) ([3]; Experiment wp045): −0.3378
- logFC BUB1 (O43683) ([3]; Experiment wp117): −0.3423
- logFC BUB1 (O43683) ([3]; Experiment wp152): −0.4014
- BUB1 degradation ([3]; MOLT-4 and MM.1S cell lines): degraded
- logFC ([4]; experiment wp105): −0.3957
- logFC ([4]; experiment wp105, direction down): −0.3957
- logFC ([4]; experiment wp172): −0.471
- logFC ([4]; experiment wp172, direction down): −0.471
- logFC LIMK1 ([5]; direction down, experiment wp045): −0.5293
- logFC LIMK1 ([5]; direction down, experiment wp103): −1.497
- logFC LIMK1 ([5]; direction down, experiment wp105): −0.5641
- logFC LIMK1 ([5]; direction down, experiment wp107): −0.9768
- logFC LIMK1 ([5]; direction down, experiment wp117): −1.412
- logFC LIMK1 ([5]; direction down, experiment wp160, 2 hr): −0.7376
- logFC LIMK1 ([5]; direction down, experiment wp160, 4 hr): −1.563
- logFC LIMK1 ([5]; direction down, experiment wp160, 8 hr): −2.36
- logFC LIMK1 ([5]; direction down, experiment wp172): −1.32
- logFC LIMK1 ([5]; experiment wp045, down): −0.5293
- logFC LIMK1 ([5]; experiment wp103, down): −1.497
- logFC LIMK1 ([5]; experiment wp105, down): −0.5641
- logFC LIMK1 ([5]; experiment wp107, down): −0.9768
- logFC LIMK1 ([5]; experiment wp117, down): −1.412
- logFC LIMK1 ([5]; experiment wp160, 2 hr, down): −0.7376
- logFC LIMK1 ([5]; experiment wp160, 4 hr, down): −1.563
- logFC LIMK1 ([5]; experiment wp160, 8 hr, down): −2.36
- logFC LIMK1 ([5]; experiment wp172, down): −1.32
- logFC MAP3K1 ([6]; Accession Q13233, experiment wp107, direction down): −0.3767
- logFC MAP3K1 ([6]; Accession Q13233, experiment wp152, direction down): −0.6139
- logFC MAP3K1 ([6]; Accession Q13233, experiment wp160, 8 hr, direction down): −0.7241
- logFC MAP3K1 ([6]; MAP3K1 (Q13233), experiment wp107): −0.3767
- logFC MAP3K1 ([6]; MAP3K1 (Q13233), experiment wp152): −0.6139
- logFC MAP3K1 ([6]; MAP3K1 (Q13233), experiment wp160, 8 hr): −0.7241
- logFC MAP3K11 (Q16584) ([7]; experiment wp107): −0.5077
- logFC MAP3K11 (Q16584) ([7]; experiment wp117): −0.4308
- logFC UHMK1 ([8]; Accession Q8TAS1, experiment wp107, direction down): −0.3263
- logFC UHMK1 ([8]; Accession Q8TAS1, experiment wp117, direction down): −0.4722
- logFC UHMK1 ([8]; Accession Q8TAS1, experiment wp160, 2 hr, direction down): −0.4468
- logFC UHMK1 ([8]; Accession Q8TAS1, experiment wp160, 4 hr, direction down): −0.7551
- logFC UHMK1 ([8]; Accession Q8TAS1, experiment wp160, 8 hr, direction down): −0.5196
- logFC UHMK1 ([8]; UHMK1 (Q8TAS1), experiment wp045): −0.3945
- logFC UHMK1 ([8]; UHMK1 (Q8TAS1), experiment wp107): −0.3263
- logFC UHMK1 ([8]; UHMK1 (Q8TAS1), experiment wp117): −0.4722
- logFC UHMK1 ([8]; UHMK1 (Q8TAS1), experiment wp160, 2 hr): −0.4468
- logFC UHMK1 ([8]; UHMK1 (Q8TAS1), experiment wp160, 4 hr): −0.7551
- logFC UHMK1 ([8]; UHMK1 (Q8TAS1), experiment wp160, 8 hr): −0.5196
- logFC UHMK1 (Q8TAS1) ([8]; experiment wp045): −0.3945
